The results in this text go back to patent publication US9447100B2, “Substituted pyrazolo[1,5-A] pyrimidines as calcium receptor modulating agents” (Takeda Pharmaceutical Company Limited, priority 2002, dated 2016).

Counter-ions that a name gives are not always drawn.

The compound `CC(C)(NC(=O)c1cnn2c1NC(c1ccccc1)CC2(C)C)c1ccc(C(F)(F)F)cc1` (stereo not drawn) [Example 427, 7,7-dimethyl-N-(1-methyl-1-(4-(trifluoromethyl)phenyl)ethyl)-5-phenyl-4,5,6,7-tetrahydropyrazolo[1,5-a]pyrimidine-3-carboxamide] had a melting point of 182 to 183 °C.

On to `CCC(NC(=O)c1cnn2c1NC(c1ccccc1)CC2C(F)(F)F)c1ccccc1C` (stereo not drawn) [Example 399, N-(1-(2-methylphenyl)propyl)-5-phenyl-7-(trifluoromethyl)-4,5,6,7-tetrahydropyrazolo[1,5-a]pyrimidine-3-carboxamide], for which the melting point fell in the range of 225 to 226 °C.

On to `C=CCc1ccc(C(CC)(CC)NC(=O)c2cnn3c2NC(c2ccccc2)CC3(C)C)cc1` (stereo not drawn) [Example 705, N-(1-(4-allylphenyl)-1-ethylpropyl)-7,7-dimethyl-5-phenyl-4,5,6,7-tetrahydropyrazolo[1,5-a]pyrimidine-3-carboxamide], for which the melting point fell in the range of 147 to 148 °C.

For `CC1(C)C[C@@H](c2ccccc2)Nc2c(C(=O)NC34CC5CC(CC(C5)C3)C4)cnn21` [Example 1029, (5S)-N-1-adamantyl-7,7-dimethyl-5-phenyl-4,5,6,7-tetrahydropyrazolo[1,5-a]pyrimidine-3-carboxamide], the melting point lay in the range of 226 to 227 °C.

`CCC(CC)(NC(=O)c1cnn2c1NC(c1ccccc1)CC2(C)C)c1ccc(F)c(F)c1` (stereo not drawn) [Example 589, N-(1-(3,4-difluorophenyl)-1-ethylpropyl)-7,7-dimethyl-5-phenyl-4,5,6,7-tetrahydropyrazolo[1,5-a]pyrimidine-3-carboxamide] displayed a melting point of 171 to 172 °C.

`CCC1(CC)C[C@H](O)CN1C(=O)c1cnn2c1N[C@@H](c1ccccc1)CC2(C)C` (as salt: HCl) [Example 1118, (3S)-1-(((5R)-7,7-dimethyl-5-phenyl-4,5,6,7-tetrahydropyrazolo[1,5-a]pyrimidin-3-yl)carbonyl)-5,5-diethyl-3-pyrrolidinol]: the melting point was in the range of 247 to 249 °C.

`CCC(CC)(NC(=O)c1cnn2c1NC(c1ccccc1)CC2(C)C)c1ccc(C#N)cc1` (stereo not drawn) [Example 574, N-(1-(4-cyanophenyl)-1-ethylpropyl)-7,7-dimethyl-5-phenyl-4,5,6,7-tetrahydropyrazolo[1,5-a]pyrimidine-3-carboxamide] came in with a melting point of 237 to 238 °C.

In the case of `CCC(CC)(NC(=O)c1cnn2c1NC(c1ccccc1)CC2(C)C)c1ccc(C(=O)OC(C)C)cc1` (stereo not drawn) [Example 733, isopropyl 4-(1-(((7,7-dimethyl-5-phenyl-4,5,6,7-tetrahydropyrazolo[1,5-a]pyrimidin-3-yl)carbonyl)amino)-1-ethylpropyl)benzoate], the melting point was 205 to 206 °C.

`CCCOC(=O)c1ccc(C(CC)(CC)NC(=O)c2cnn3c2NC(c2ccccc2)CC3(C)C)cc1` (stereo not drawn) [Example 762, propyl 4-(1-(((7,7-dimethyl-5-phenyl-4,5,6,7-tetrahydropyrazolo[1,5-a]pyrimidin-3-yl)carbonyl)amino)-1-ethylpropyl)benzoate] came in with a melting point of 162 to 163 °C.

`CCC(CC)(NC(=O)c1c(C)nn2c1NC(c1ccccc1F)CC2(C)C)c1ccccc1` (stereo not drawn) (as salt: HCl) [Example 840, N-(1-ethyl-1-phenylpropyl)-5-(2-fluorophenyl)-2,7,7-trimethyl-4,5,6,7-tetrahydropyrazolo[1,5-a]pyrimidine-3-carboxamide] returned a melting point of 160 to 162 °C.

In turn, `CCC(CC)(NC(=O)c1cnn2c1NC(c1ccccc1Cl)CC2(C)C)c1ccc(C)cc1` (stereo not drawn) (as salt: HCl) [Example 961, 5-(2-chlorophenyl)-N-[1-ethyl-1-(4-methylphenyl)propyl]-7,7-dimethyl-4,5,6,7-tetrahydropyrazolo[1,5-a]pyrimidine-3-carboxamide] came in with a melting point of 128 to 130 °C.

For the compound `CCC(CC)(NC(=O)c1c(OCCO)nn2c1NC(c1ccccc1)CC2(C)C)c1ccc(C)cc1` (stereo not drawn) [Example 975, N-(1-ethyl-1-(4-methylphenyl)propyl)-2-(2-hydroxyethoxy)-7,7-dimethyl-5-phenyl-4,5,6,7-tetrahydropyrazolo[1,5-a]pyrimidine-3-carboxamide], the melting point was 115 to 117 °C.

The compound `CC1(C)CC(c2ccccc2)Nc2c(C(=O)O)c(OCCO)nn21` (stereo not drawn) [Example 953, 2-(2-hydroxyethoxy)-7,7-dimethyl-5-phenyl-4,5,6,7-tetrahydropyrazolo[1,5-a]pyrimidine-3-carboxylic acid] came in with a melting point of 137 to 139 °C.

`CCC1(CC)C[C@H](OCc2ccccc2)CN1C(=O)c1cnn2c1N[C@@H](c1ccccc1)CC2(C)C` [Example 1107, (5R)-3-(((4S)-4-(benzyloxy)-2,2-diethy-1-pyrrolidinyl)carbonyl)-7,7-dimethyl-5-phenyl-4,5,6,7-tetrahydropyrazolo[1,5-a]pyrimidine] returned a melting point of 173 to 175 °C.

In turn, `CCC(CC)(NC(=O)c1cnn2c1NC(c1ccccc1)CC2(C)C)c1ccc(I)cc1` (stereo not drawn) [Example 667, N-(1-ethyl-1-(4-iodophenyl)propyl)-7,7-dimethyl-5-phenyl-4,5,6,7-tetrahydropyrazolo[1,5-a]pyrimidine-3-carboxamide] gave a melting point of 182 to 183 °C.

In turn, `CCCC(CC)(CC)NC(=O)c1cnn2c1N[C@@H](c1ccccc1)CC2(C)C` (as salt: HCl) [Example 1072, (5R)-N-(1,1-diethylbutyl)-7,7-dimethyl-5-phenyl-4,5,6,7-tetrahydropyrazolo[1,5-a]pyrimidine-3-carboxamide] showed a melting point of 185 to 186 °C.

Compound `CCOC(=O)c1cnn2c1NC(c1ccco1)CC2C(F)(F)F` (stereo not drawn) [Example 14, ethyl 5-(2-furyl)-7-(trifluoromethyl)-4,5,6,7-tetrahydropyrazolo[1,5-a]pyrimidine-3-carboxylate] returned a melting point of 86 °C.

For the compound `O=C(NCc1ccc(-c2csnn2)cc1)c1cnn2c1NC(c1ccccc1)CC2C(F)(F)F` (stereo not drawn) [Example 278, 5-phenyl-N-(4-(1,2,3-thiadiazol-4-yl)benzyl)-7-(trifluoromethyl)-4,5,6,7-tetrahydropyrazolo[1,5-a]pyrimidine-3-carboxamide], the melting point lay within 205 to 206 °C.

`CC1(C)CC(c2ccccc2Cl)Nc2c(C(=O)O)cnn21` (stereo not drawn) [Example 940, 5-(2-chlorophenyl)-7,7-dimethyl-4,5,6,7-tetrahydropyrazolo[1,5-a]pyrimidine-3-carboxylic acid]: the melting point was in the range of 167 to 168 °C.

For `CCOC(=O)COc1ccc(C(CC)(CC)NC(=O)c2cnn3c2NC(c2ccccc2)CC3(C)C)cc1` (stereo not drawn) [Example 730, ethyl (4-(1-(((7,7-dimethyl-5-phenyl-4,5,6,7-tetrahydropyrazolo[1,5-a]pyrimidin-3-yl)carbonyl)amino)-1-ethylpropyl)phenoxy)acetate], the melting point was 178 to 179 °C.

On to `O=C(On1nnc2ccccc21)c1cnn2c1N[C@H](c1ccccc1)C[C@@H]2C(F)(F)F` (stereo in doubt) [Example 372, 1-(((5-phenyl-7-(trifluoromethyl)-4,5,6,7-tetrahydropyrazolo[1,5-a]pyrimidin-3-yl)carbonyl)oxy)-1H-1,2,3-benzotriazole], for which the melting point lay in the range of 216 to 217 °C.

Broadly, the melting point is the temperature, or range, at which the solid turns liquid.
